Reference: patent US10316035B2, “Triazolopyridine inhibitors of myeloperoxidase” (BRISTOL-MYERS SQUIBB COMPANY, priority 2015, dated 2019)
pIC50: −log10 of the molar value.

These compounds were tested against T1, myeloperoxidase (MPO) (Homo sapiens, UniProt P05164) (assay: MPO peroxidation assay (Amplex Red assay)). Settings: not given.
T1 sequence (P05164 49-745): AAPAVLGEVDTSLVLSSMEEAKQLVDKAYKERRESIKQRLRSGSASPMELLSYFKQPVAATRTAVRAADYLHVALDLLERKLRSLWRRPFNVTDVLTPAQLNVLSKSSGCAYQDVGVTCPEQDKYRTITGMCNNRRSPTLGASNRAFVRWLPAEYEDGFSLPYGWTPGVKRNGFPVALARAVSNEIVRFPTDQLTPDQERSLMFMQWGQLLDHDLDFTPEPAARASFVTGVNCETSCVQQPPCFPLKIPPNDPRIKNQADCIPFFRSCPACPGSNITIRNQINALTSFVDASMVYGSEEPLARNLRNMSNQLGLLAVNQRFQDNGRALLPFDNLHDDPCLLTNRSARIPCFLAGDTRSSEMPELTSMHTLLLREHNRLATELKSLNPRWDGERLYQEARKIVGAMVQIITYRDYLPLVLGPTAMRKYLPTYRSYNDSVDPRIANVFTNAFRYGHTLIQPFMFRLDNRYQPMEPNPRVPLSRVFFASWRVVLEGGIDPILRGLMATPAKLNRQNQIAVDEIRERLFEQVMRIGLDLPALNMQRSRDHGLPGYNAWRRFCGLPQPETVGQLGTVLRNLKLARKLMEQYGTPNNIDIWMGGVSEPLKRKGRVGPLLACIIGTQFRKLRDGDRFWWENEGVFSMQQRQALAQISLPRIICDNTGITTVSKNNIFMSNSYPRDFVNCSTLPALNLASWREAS
Assay type: biochemical
Protocol: MPO Peroxidation Assay (Amplex Red Assay)
MPO peroxidation activity was measured in 100 mM KPi (pH 7.4) by utilizing the non-fluorescent reagent Amplex Red (Invitrogen catalog # A12222) which can be oxidized to the highly fluorescent resorufin. Amplex Red is oxidized by the peroxidase action of MPO to resorufin. Reactions were carried out in 50 μL total volume by adding a 25 μL mixture of 200 pM myeloperoxidase and 40 nM H2O2(Sigma #349887) to 100 nL inhibitor in 100% DMSO in a 384 well Perkin Elmer Optiplate. Enzyme and compound were preincubated for ten minutes at room temperature.
After the ten minute preincubation, 25 μL of an Amplex Red mixture containing 200 μM Amplex Red and 10 mM H2O2 was added to the plate. Kinetic determinations were carried out immediately on a Perkin Elmer Envision (15 minute kinetic read, Ex: 535 nm, Em: 590 nm).
IC50 values were calculated by determining the slope of the linear portion of the kinetic trace ([…]), and using that calculated slope to determine % inhibition occurring at each concentration of inhibitor using the following equation:
[formula] where A=minimal Y value (activity level of inhibited sample), B=maximal Y value (activity level of uninhibited sample), C=Log IC50, D=Hill Slope, x=concentration of inhibitor. MPO Chlorination Assay (APF Assay)

SMILES	pIC50
Cc1c(COc2cc(N)nc3[nH]nnc23)cccc1-c1cccc(F)c1 [Example 68, 7-((3′-Fluoro-2-methylbiphenyl-3-yl)methoxy)-3H-[1,2,3]triazolo[4,5-b]pyridin-5-amine]	7.00 to 9.00
Nc1cc(OCc2cc(-c3cccc(F)c3)ccc2Cl)c2nn[nH]c2n1 [Example 70, 7-((4-Chloro-3′-fluorobiphenyl-3-yl)methoxy)-3H-[1,2,3]triazolo[4,5-b]pyridin-5-amine]	7.00 to 9.00

Now from value to compound:

pIC50	SMILES
7.00 to 9.00	Nc1cc(OCc2ccccc2F)c2nn[nH]c2n1 [Example 55, 7-(2-Fluorobenzyloxy)-3H-[1,2,3]triazolo[4,5-b]pyridin-5-amine]
7.00 to 9.00	Cn1cc(-c2cccc(COc3cc(N)nc4[nH]nnc34)c2)cn1 [Example 77, 7-(3-(1-Methyl-1H-pyrazol-4-yl)benzyloxy)-3H-[1,2,3]triazolo[4,5-b]pyridin-5-amine]
7.00 to 9.00	Cc1c(COc2cc(N)nc3[nH]nnc23)cccc1-c1ccn(C)n1 [Example 81, 7-(2-Methyl-3-(1-methyl-1H-pyrazol-3-yl)benzyloxy)-3H-[1,2,3]triazolo[4,5-b]pyridin-5-amine]

Same assay, conditions: MPO peroxidation, potency range class; read-out: Amplex Red IC50

SMILES	pIC50
Nc1cc(OCc2cccc(-n3cnc(C(F)F)n3)c2)c2nn[nH]c2n1 [Example 45, 7-(3-(3-(Difluoromethyl)-1H-1,2,4-triazol-1-yl)benzyloxy)-3H-[1,2,3]triazolo[4,5-b]pyridin-5-amine]	7.00 to 9.00
CN(C)S(=O)(=O)c1ccccc1-c1ccc(COc2cc(N)nc3[nH]nnc23)c(Cl)c1 [Example 46, 4′-((5-Amino-3H-[1,2,3]triazolo[4,5-b]pyridin-7-yloxy)methyl)-3′-chloro-N,N-dimethylbiphenyl-2-sulfonamide]	7.00 to 9.00
Nc1cc(OCc2cc(C(=O)NCc3ccccc3)ccc2F)c2nn[nH]c2n1 [Example 47, 3-((5-Amino-3H-[1,2,3]triazolo[4,5-b]pyridin-7-yloxy)methyl)-N-benzyl-4-fluorobenzamide]	7.00 to 9.00
Nc1cc(OCc2cc(C(=O)NC3CC3)ccc2F)c2nn[nH]c2n1 [Example 48, 3-((5-Amino-3H-[1,2,3]triazolo[4,5-b]pyridin-7-yloxy)methyl)-N-cyclopropyl-4-fluorobenzamide]	7.00 to 9.00
CC1CC(c2ccccc2)CCC1COc1cc(N)nc2[nH]nnc12 (stereo not shown) [Example 53, 7-((2-Methyl-4-phenylcyclohexyl)methoxy)-3H-[1,2,3]triazolo[4,5-b]pyridin-5-amine]	6.00 to 7.00
NC(=O)c1cccc(COc2cc(N)nc3[nH]nnc23)c1 [Example 56, 3-((5-Amino-3H-[1,2,3]triazolo[4,5-b]pyridin-7-yloxy)methyl)benzamide]	6.00 to 7.00
Nc1cc(OCc2cccc(Br)c2F)c2nn[nH]c2n1 [Example 62, 7-(3-Bromo-2-fluorobenzyloxy)-3H-[1,2,3]triazolo[4,5-b]pyridin-5-amine]	7.00 to 9.00
COc1ccc(-c2cccc(COc3cc(N)nc4[nH]nnc34)c2)c(F)c1 [Example 64, 7-((2′-Fluoro-4′-methoxybiphenyl-3-yl)methoxy)-3H-[1,2,3]triazolo[4,5-b]pyridin-5-amine]	6.00 to 7.00
COc1ccc(-c2cccc(F)c2)cc1COc1cc(N)nc2[nH]nnc12 [Example 66, 7-((3′-Fluoro-4-methoxybiphenyl-3-yl)methoxy)-3H-[1,2,3]triazolo[4,5-b]pyridin-5-amine]	7.00 to 9.00
Cc1c(COc2cc(N)nc3[nH]nnc23)cccc1-c1ccccc1 [Example 69, 7-((2-Methylbiphenyl-3-yl)methoxy)-3H-[1,2,3]triazolo[4,5-b]pyridin-5-amine]	7.00 to 9.00
Nc1cc(OCc2cc(-c3cccc(F)c3)ccc2F)c2nn[nH]c2n1 [Example 71, 7-((3′,4-Difluorobiphenyl-3-yl)methoxy)-3H-[1,2,3]triazolo[4,5-b]pyridin-5-amine]	7.00 to 9.00
Nc1cc(OCc2cccc(-c3cccc(F)c3)c2F)c2nn[nH]c2n1 [Example 72, 7-((2,3′-Difluorobiphenyl-3-yl)methoxy)-3H-[1,2,3]triazolo[4,5-b]pyridin-5-amine]	7.00 to 9.00
COc1ccccc1-c1ccc(F)c(COc2cc(N)nc3[nH]nnc23)c1F [Example 73, 7-((2,4-Difluoro-2′-methoxybiphenyl-3-yl)methoxy)-3H-[1,2,3]triazolo[4,5-b]pyridin-5-amine]	7.00 to 9.00
Nc1cc(OCc2cccc(-c3ccn(Cc4ccccc4)n3)c2)c2nn[nH]c2n1 [Example 75, 7-(3-(1-Benzyl-1H-pyrazol-3-yl)benzyloxy)-3H-[1,2,3]triazolo[4,5-b]pyridin-5-amine]	6.00 to 7.00
Cn1nccc1-c1cccc(COc2cc(N)nc3[nH]nnc23)c1 [Example 78, 7-(3-(1-Methyl-1H-pyrazol-5-yl)benzyloxy)-3H-[1,2,3]triazolo[4,5-b]pyridin-5-amine]	7.00 to 9.00
Cn1nc(C(F)(F)F)cc1-c1cccc(COc2cc(N)nc3[nH]nnc23)c1 [Example 79, 7-(3-(1-Methyl-3-(trifluoromethyl)-1H-pyrazol-5-yl)benzyloxy)-3H-[1,2,3]triazolo[4,5-b]pyridin-5-amine]	6.00 to 7.00
COc1c(COc2cc(N)nc3[nH]nnc23)cccc1-c1ccn(C)n1 [Example 80, 7-(2-Methoxy-3-(1-methyl-1H-pyrazol-3-yl)benzyloxy)-3H-[1,2,3]triazolo[4,5-b]pyridin-5-amine]	6.00 to 7.00

Continued, values first:

pIC50	SMILES
7.00 to 9.00	Nc1cc(OCc2cc(C(=O)Nc3cccc(Cl)c3)ccc2F)c2nn[nH]c2n1 [Example 49, 3-((5-Amino-3H-[1,2,3]triazolo[4,5-b]pyridin-7-yloxy)methyl)-N-(3-chlorophenyl)-4-fluorobenzamide]
6.00 to 7.00	Nc1cc(OCC2CCc3ccccc3C2)c2nn[nH]c2n1 (stereo not shown) [Example 51, 7-((1,2,3,4-Tetrahydronaphthalen-2-yl)methoxy)-3H-[1,2,3]triazolo[4,5-b]pyridin-5-amine]
7.00 to 9.00	COc1ccc(Br)cc1COc1cc(N)nc2[nH]nnc12 [Example 58, 7-(5-Bromo-2-methoxybenzyloxy)-3H-[1,2,3]triazolo[4,5-b]pyridin-5-amine]
7.00 to 9.00	COc1c(Br)cccc1COc1cc(N)nc2[nH]nnc12 [Example 59, 7-(3-Bromo-2-methoxybenzyloxy)-3H-[1,2,3]triazolo[4,5-b]pyridin-5-amine]
7.00 to 9.00	Cc1c(Br)cccc1COc1cc(N)nc2[nH]nnc12 [Example 60, 7-(3-Bromo-2-methylbenzyloxy)-3H-[1,2,3]triazolo[4,5-b]pyridin-5-amine]
7.00 to 9.00	Cc1c(COc2cc(N)nc3[nH]nnc23)cccc1-c1cncc(F)c1 [Example 63, 7-(3-(5-Fluoropyridin-3-yl)-2-methylbenzyloxy)-3H-[1,2,3]triazolo[4,5-b]pyridin-5-amine]
7.00 to 9.00	Cc1ccc(-c2cccc(F)c2)cc1COc1cc(N)nc2[nH]nnc12 [Example 65, 7-((3′-Fluoro-4-methylbiphenyl-3-yl)methoxy)-3H-[1,2,3]triazolo[4,5-b]pyridin-5-amine]
6.00 to 7.00	COc1c(COc2cc(N)nc3[nH]nnc23)cccc1-c1cccc(F)c1 [Example 67, 7-((3′-Fluoro-2-methoxybiphenyl-3-yl)methoxy)-3H-[1,2,3]triazolo[4,5-b]pyridin-5-amine]
7.00 to 9.00	Nc1cc(OCc2cccc(-c3cnn(Cc4ccccc4)c3)c2)c2nn[nH]c2n1 [Example 74, 7-(3-(1-Benzyl-1H-pyrazol-4-yl)benzyloxy)-3H-[1,2,3]triazolo[4,5-b]pyridin-5-amine]
